According to patent US20220323455A1, “FUSED HETEROCYCLIC DERIVATIVES AS ANTIVIRAL AGENTS” (priority 2019, published 2022):

What follows are molecules tested on HBV (assay: HBV replication inhibition assay (BDNA assay) in HepG2.2.15 cells). Conditions: 6 days, encapsidated HBV DNA in supernatant.
Assay type: cell-based, Hepatitis B virus
Method: HBV replication inhibition by the disclosed compounds were determined in cells infected or transfected with HBV or cells with stably integrated HBV, such as HepG2.2.15 cells (Sells et al. 1987). In this example, HepG2.2.15 cells were maintained in cell culture medium containing 10% fetal bovine serum (FBS), Geneticin, L-glutamine, penicillin and streptomycin. HepG2.2.15 cells were seeded in 96-well plates at a density of 40,000 cells/well and were treated with serially diluted compounds at a final DMSO concentration of 0.5% either alone or in combination by adding drugs in a checker box format. Cells were incubated with compounds for three days, after which medium was removed and fresh medium containing compounds was added to cells and incubated for another three days. At day 6, supernatant was removed and treated with DNase at 37° C. for 60 minutes, followed by enzyme inactivation at 75° C. for 15 minutes. Encapsidated HBV DNA was released from the virions and covalently linked HBV polymerase by incubating in lysis buffer (Affymetrix QS0010) containing 2.5 μg proteinase K at 50° C. for 40 minutes. HBV DNA was denatured by addition of 0.2 M NaOH and detected using a branched DNA (BDNA) QuantiGene assay kit according to manufacturer recommendation (Affymetrix). HBV DNA levels were also quantified using qPCR, based on amplification of encapsidated HBV DNA extraction with QuickExtraction Solution (Epicentre Biotechnologies) and amplification of HBV DNA using HBV specific PCR probes that can hybridize to HBV DNA and a fluorescently labeled probe for quantitation. In addition, cell viability of HepG2.2.15 cells incubated with test compounds alone or in combination was determined by using CellTitre-Glo reagent according to the manufacturer protocol (Promega). The mean background signal from wells containing only culture medium was subtracted from all other samples, and percent inhibition at each compound concentration was calculated by normalizing to signals from HepG2.2.15 cells treated with 0.5% DMSO using equation E1.
% inhibition(DMSOave−Xi)DMSOave×100% E1:
where DMSOave is the mean signal calculated from the wells that were treated with DMSO control (0% inhibition control) and Xi is the signal measured from the individual wells. EC50 values, effective concentrations that achieved 50% inhibitory effect, were determined by non-linear fitting using Graphpad Prism software (San Diego, Calif.) and equation E2.
Y=Ymin+(Ymax−Ymin)/(1+10(Log EC50−X)×HillSlope) E2:
where Y represents percent inhibition values and X represents the logarithm of compound concentrations.
Selected disclosed compounds were assayed in the HBV replication assay (BDNA assay), as described above, and a representative group of these active compounds is shown in Table 5.

Structure (SMILES)	EC50 [nM]
C#CC1(O)CCC(F)(F)c2c3c(nn2C1)CCN(C(=O)Nc1ccc(F)c(C#N)c1)C3 (single isomer, unassigned) [Example 60, (S*)—N-(3-Cyano-4-fluorophenyl)-8-ethynyl-11,11-difluoro-8-hydroxy-3,4,8,9,10,11-hexahydro-1H-pyrido[4′,3′:3,4]pyrazolo[1,5-a]azepine-2(7H)-carboxamide]	17
C[C@@H]1Cc2nn3c(c2CN1C(=O)Nc1ccnc(Br)c1F)C(F)(F)CCC(CO)C3 (single isomer, unassigned) [Example 77, (3R,8S*)—N-(2-Bromo-3-fluoropyridin-4-yl)-11,11-difluoro-8-(hydroxymethyl)-3-methyl-3,4,8,9,10,11-hexahydro-1H-pyrido[4′,3′:3,4]pyrazolo[1,5-a]azepine-2(7H)-carboxamide]	14
N#Cc1cc(NC(=O)N2CCc3nn4c(c3C2)C(F)(F)CCC(COCC(F)F)C4)ccc1F (single isomer, unassigned) [Example 29, (R*)—N-(3-Cyano-4-fluorophenyl)-8-((2,2-difluoroethoxy)methyl)-11,11-difluoro-3,4,8,9,10,11-hexahydro-1H-pyrido[4′,3′:3,4]pyrazolo[1,5-a]azepine-2(7H)-carboxamide]	78
C[C@@H]1Cc2nn3c(c2CN1C(=O)Nc1ccc(F)c(C#N)c1)C(F)(F)CCC(O)(COCC(F)F)C3 (single isomer, unassigned) [Example 94, (3R,8S*)—N-(3-Cyano-4-fluorophenyl)-8-((2,2-difluoroethoxy)methyl)-11,11-difluoro-8-hydroxy-3-methyl-3,4,8,9,10,11-hexahydro-1H-pyrido[4′,3′:3,4]pyrazolo[1,5-a]azepine-2(7H)-carboxamide]	15
O=C(Nc1ccc(F)c(C(F)(F)F)c1)N1CCc2nn3c(c2C1)C(F)(F)CCC(COCC(F)F)C3 (single isomer, unassigned) [Example 30, (R*)-8-((2,2-Difluoroethoxy)methyl)-11,11-difluoro-N-(4-fluoro-3-(trifluoromethyl)phenyl)-3,4,8,9,10,11-hexahydro-1H-pyrido[4′,3′:3,4]pyrazolo[1,5-a]azepine-2(7H)-carboxamide]	267
C[C@@H]1Cc2nn3c(c2CN1C(=O)Nc1ccnc(C(F)F)c1F)C(F)(F)CCC(O)(CC#N)C3 (single isomer, unassigned) [Example 90, (3R,8S*)-8-(Cyanomethyl)-N-(2-(difluoromethyl)-3-fluoropyridin-4-yl)-11,11-difluoro-8-hydroxy-3-methyl-3,4,8,9,10,11-hexahydro-1H-pyrido[4′,3′:3,4]pyrazolo[1,5-a]azepine-2(7H)-carboxamide]	54
N#CCC1(O)CCC(F)(F)c2c3c(nn2C1)CCN(C(=O)Nc1ccnc(C(F)F)c1F)C3 (single isomer, unassigned) [Example 42, (R*)-8-(Cyanomethyl)-N-(2-(difluoromethyl)-3-fluoropyridin-4-yl)-11,11-difluoro-8-hydroxy-3,4,89,10,11-hexahydro-1H-pyrido[4′,3′:3,4]pyrazolo[1,5-a]azepine-2(7H)-carboxamide]	163
C#CC1(O)CCC(F)(F)c2c3c(nn2C1)CCN(C(=O)Nc1ccnc(Br)c1F)C3 (single isomer, unassigned) [Example 65, (S*)—N-(2-Bromo-3-fluoropyridin-4-yl)-8-ethynyl-11,11-difluoro-8-hydroxy-3,4,8,9,10,11-hexahydro-1H-pyrido[4′,3′:3,4]pyrazolo[1,5-a]azepine-2(7H)-carboxamide]	144
O=C(Nc1ccc(F)c(C(F)(F)F)c1)N1CCc2nn3c(c2C1)C(F)(F)CCC(CO)C3 (single isomer, unassigned) [Example 24, (R*)-11,11-Difluoro-N-(4-fluoro-3-(trifluoromethyl)phenyl)-8-(hydroxymethyl)-3,4,8,91011-hexahydro-1H-pyrido[4′,3′:3,4]pyrazolo[1,5-a]azepine-2(7H)-carboxamide]	35
O=C(Nc1ccnc(C(F)F)c1F)N1CCc2nn3c(c2C1)C(F)(F)CC(O)CC3 (single isomer, unassigned) [Example 142, (S*)—N-(2-(Difluoromethyl)-3-fluoropyridin-4-yl)-11,11-difluoro-9-hydroxy-3,4,8,9,10,11-hexahydro-1H-pyrido[4′,3′:3,4]pyrazolo[1,5-a]azepine-2(7H)-carboxamide]	46
C#CC1(O)CCC(F)(F)c2c3c(nn2C1)C[C@@H](C)N(C(=O)Nc1ccnc(Br)c1F)C3 (single isomer, unassigned) [Example 99, (3R,8S*)—N-(2-Bromo-3-fluoropyridin-4-yl)-8-ethynyl-11,11-difluoro-8-hydroxy-3-methyl-3,4,8,9,10,11-hexahydro-1H-pyrido[4′,3′:3,4]pyrazolo[1,5-a]azepine-2(7H)-carboxamide]	275
O=C(Nc1ccnc(Br)c1F)N1CCc2nn3c(c2C1)C(F)(F)CCC(CO)C3 (single isomer, unassigned) [Example 26, (R*)—N-(2-Bromo-3-fluoropyridin-4-yl)-11,11-difluoro-8-(hydroxymethyl)-3,4,8,9,10,11-hexahydro-1H-pyrido[4′,3′:3,4]pyrazolo[1,5-a]azepine-2(7H)-carboxamide]	25
C[C@@H]1Cc2nn3c(c2CN1C(=O)Nc1ccc(F)c(C#N)c1)C(F)(F)CC(O)(CO)CC3 (single isomer, unassigned) [Example 125, (3R,9R*)—N-(3-Cyano-4-fluorophenyl)-11,11-difluoro-9-hydroxy-9-(hydroxymethyl)-3-methyl-3,4,8,9,10,11-hexahydro-1H-pyrido[4′,3′:3,4]pyrazolo[1,5-a]azepine-2(7H)-carboxamide]	14
O=C(Nc1ccnc(Br)c1F)N1CCc2nn3c(c2C1)C(F)(F)CCC(F)(CO)C3 (single isomer, unassigned) [Example 47, (S*)—N-(2-Bromo-3-fluoropyridin-4-yl)-8,11,11-trifluoro-8-(hydroxymethyl)-3,4,8,9,10,11-hexahydro-1H-pyrido[4′,3′:3,4]pyrazolo[1,5-a]azepine-2(7H)-carboxamide]	156
N#Cc1c(F)ccc(NC(=O)N2CCc3nn4c(c3C2)C(F)(F)CCC(CO)C4)c1F (single isomer, unassigned) [Example 21, (S*)—N-(3-Cyano-2,4-difluorophenyl)-11,11-difluoro-8-(hydroxymethyl)-3,4,8,9,10,11-hexahydro-1H-pyrido[4′,3′:3,4]pyrazolo[1,5-a]azepine-2(7H)-carboxamide]	1
C[C@@H]1Cc2nn3c(c2CN1C(=O)Nc1ccc(F)c(C#N)c1)C(F)(F)CCC(C(C)(C)O)C3 (single isomer, unassigned) [Example 101, (3R,8S*)—N-(3-Cyano-4-fluorophenyl)-11,11-difluoro-8-(2-hydroxypropan-2-yl)-3-methyl-3,4,8,9,10,11-hexahydro-1H-pyrido[4′,3′:3,4]pyrazolo[1,5-a]azepine-2(7H)-carboxamide]	44
O=C(Nc1ccc(F)c(C(F)(F)F)c1)N1CCc2nn3c(c2C1)C(F)(F)CCC(CO)C3 (single isomer, unassigned) [Example 20, (S*)-11,11-Difluoro-N-(4-fluoro-3-(trifluoromethyl)phenyl)-8-(hydroxymethyl)-3,4,8,9,10,11-hexahydro-1H-pyrido[4′,3′:3,4]pyrazolo[1,5-a]azepine-2(7H)-carboxamide]	4
N#Cc1cc(NC(=O)N2CCc3nn4c(c3C2)C(F)(F)CCC(CO)C4)ccc1F (single isomer, unassigned) [Example 19, (S*)—N-(3-Cyano-4-fluorophenyl)-11,11-difluoro-8-(hydroxymethyl)-3,4,8,9,10,11-hexahydro-1H-pyrido[4′,3′:3,4]pyrazolo[1,5-a]azepine-2(7H)-carboxamide]	4

Same assay, conditions: Hepatitis B virus, HepG2.2.15, 144 h, 6 days, encapsidated HBV DNA in supernatant

Structure (SMILES)	EC50 [nM]
CCC1(O)CCC(F)(F)c2c3c(nn2C1)CCN(C(=O)Nc1ccc(F)c(C#N)c1)C3 (single isomer, unassigned) [Example 61, (S*)—N-(3-Cyano-4-fluorophenyl)-8-ethyl-11,11-difluoro-8-hydroxy-3,4,8,9,10,11-hexahydro-1H-pyrido[4′,3′:3,4]pyrazolo[1,5-a]azepine-2(7H)-carboxamide]	40
C#CC1(O)CCC(F)(F)c2c3c(nn2C1)CCN(C(=O)Nc1ccnc(C(F)F)c1F)C3 (single isomer, unassigned) [Example 64, (R*)—N-(2-(Difluoromethyl)-3-fluoropyridin-4-yl)-8-ethynyl-11,11-difluoro-8-hydroxy-3,4,89,10,11-hexahydro-1H-pyrido[4′,3′:3,4]pyrazolo[1,5-a]azepine-2(7H)-carboxamide]	143
